pIC50: −log10 of the molar value.
Key:
[1] = target: T1, AAK1 (amino acids T27-A365) (Homo sapiens, UniProt Q2M2I8); test: AAK1 pSENs assay; assay type: biochemical; settings: class symbols; read-out: AAK1 pSENs: EIC50
T1 construct: against AAK1 (amino acids T27-A365); 6His (N, cleaved yes)
Experimental: (§1) The recombinant proteins were independently expressed in Escherichia coli BL21(DE3) cells cultured in Luria-Bertani (LB) medium until OD600 reached 0.6-0.8, then cooled to 15° C. and supplemented with 0.5 mM isopropyl 1-thio-D-galactopyranoside (IPTG) induce protein expression 16 h. Cells were harvested and resuspended in lysis buffer (50 mM HEPES pH 7.5, 500 mM NaCl, 5 mM imidazole, 5% glycerol, 0.5 mM Tris (2-carboxyethyl) phosphine (TCEP), cOmplete Protease Inhibitor Tablet (Roche)) and lysed by microfludics high pressure homogenizer (UH-06, Union-Biotech). Proteins were purified using […] chromatography (His FF column, Bestchrom) and eluted stepwise in binding buffer with 20-300 mM imidazole. Removal of the hexahistidine tag was performed at 4° C. overnight using recombinant TEV protease and reacted with BirA to obtain the corresponding biotinylated-AAK1, BIKE or GAK proteins. Further separated in the reverse Strep column (Strep-Tactin® XT, IBA). The Biotin elution sample was collected containing untagged biotinylated protein was then purified by Ion-exchange chromatography (Mono Q 10/100 GL, Cytiva) and Size-exclusion chromatography (HiLoad 16/600 Superdex 200 pg, Cytiva). The pure protein was stored in a storage buffer 50 mM HEPES (pH 7.5), 300 mM NaCl, 5% glycerol at −80° C. Protein were characterized by SDS-PAGE, LC-MS and aSEC.
(§2) This example describes one illustrative method for determining the IC50 of the compounds of the present invention against AAK1 (amino acids T27-A365). AAK1 protein was dissolved at 20 nM in 1× enzyme solution (50 mM HEPES pH7.5, 10 mM MgCl2, 1 mM DTT, 1% glycerol, 0.5 mM EGTA, 0.01% Briji35, 0.02% BSA) and 12.5 ul was incubated with 250 nl DMSO or 250 nl compound in DMSO at 25° C. for 15 min. The reaction was started by addition of 12.5 ul of 30 uM AQT0759 (Assayquant, CSKS-AQT0759B) and 70 uM ATP which were diluted in 1× substrate dilution buffer (50 mM HEPES pH7.5, 10 mM MgCl2, 1 mM DTT, 1% glycerol, 0.5 mM EGTA, 0.01% Briji35).

AAK1 = AAK1 (Homo sapiens, UniProt Q2M2I8); test: pAP2M1 cell-based assay (in-cell Western); settings: Hela cells co-transfected with AP2M1 and AAK1, 3 hr treatment; class symbols; read-out: AAK1 In-cell Western: IC50
Sequence of AAK1 (Q2M2I8 whole entry): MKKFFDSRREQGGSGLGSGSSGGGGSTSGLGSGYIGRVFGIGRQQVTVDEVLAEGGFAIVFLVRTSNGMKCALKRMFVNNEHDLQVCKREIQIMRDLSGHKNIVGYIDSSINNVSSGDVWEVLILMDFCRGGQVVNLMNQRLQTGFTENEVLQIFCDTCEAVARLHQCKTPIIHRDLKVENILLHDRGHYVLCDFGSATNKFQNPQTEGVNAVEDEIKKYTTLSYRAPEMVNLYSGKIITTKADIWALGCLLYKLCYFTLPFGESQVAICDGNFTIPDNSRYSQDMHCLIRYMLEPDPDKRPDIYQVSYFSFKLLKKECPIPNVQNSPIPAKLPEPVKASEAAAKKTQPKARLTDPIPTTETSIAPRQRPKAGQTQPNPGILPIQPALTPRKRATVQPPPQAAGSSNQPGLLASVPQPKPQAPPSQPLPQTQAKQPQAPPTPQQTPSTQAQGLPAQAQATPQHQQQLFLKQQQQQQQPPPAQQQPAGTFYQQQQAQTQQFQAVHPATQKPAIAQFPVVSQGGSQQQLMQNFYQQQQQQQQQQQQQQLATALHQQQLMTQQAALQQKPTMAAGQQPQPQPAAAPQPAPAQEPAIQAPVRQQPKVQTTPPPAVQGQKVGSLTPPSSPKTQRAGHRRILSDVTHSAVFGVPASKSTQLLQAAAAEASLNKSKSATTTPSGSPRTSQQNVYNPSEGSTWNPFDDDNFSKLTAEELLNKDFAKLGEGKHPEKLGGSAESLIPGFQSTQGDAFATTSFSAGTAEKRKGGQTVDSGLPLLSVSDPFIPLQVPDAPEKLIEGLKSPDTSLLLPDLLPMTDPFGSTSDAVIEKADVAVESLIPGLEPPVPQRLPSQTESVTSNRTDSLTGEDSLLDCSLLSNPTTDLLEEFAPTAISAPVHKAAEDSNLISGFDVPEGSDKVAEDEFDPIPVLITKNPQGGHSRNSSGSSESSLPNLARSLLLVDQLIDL
Text: pAP2M1 Cell-Based Assay (in-Cell Western):
The plate was read on Licor Odyssey CLx imaging system (LICOR) to acquire fluorescence intensity at 700 channel and 800 channel.
Data analysis: Fluorescence intensity at 700 channel served as internal standard and 800 channel were normalized with 700 channel.

[2] = target: T2, BIKE (amino acids S38-E345) (K320A, K321A) (Homo sapiens, UniProt Q9NSY1, K320A/K321A); test: BIKE pSENs assay; assay type: biochemical; settings: class symbols; read-out: BIKE pSENs: IC50
T2 construct: against BIKE (amino acids S38-E345) (K320A, K321A); 6His (N, cleaved yes)
T2 sequence (Q9NSY1 38-345 K320A/K321A): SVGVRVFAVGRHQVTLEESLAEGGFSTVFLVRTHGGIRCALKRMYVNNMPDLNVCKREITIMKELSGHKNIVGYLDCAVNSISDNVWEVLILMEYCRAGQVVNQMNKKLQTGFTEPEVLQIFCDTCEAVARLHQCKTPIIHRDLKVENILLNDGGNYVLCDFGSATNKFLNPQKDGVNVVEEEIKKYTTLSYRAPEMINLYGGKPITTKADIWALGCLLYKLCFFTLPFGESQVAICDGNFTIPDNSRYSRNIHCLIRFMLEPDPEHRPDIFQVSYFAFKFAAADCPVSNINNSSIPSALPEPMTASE
Experimental: as §1
as §2, with “BIKE” for “This example describes one illustrative method for determining the IC50 of the compounds of the present invention against AAK1 (amino acids T27-A365). AAK1”, “40” for “70”

T1 sequence (Q2M2I8 27-365): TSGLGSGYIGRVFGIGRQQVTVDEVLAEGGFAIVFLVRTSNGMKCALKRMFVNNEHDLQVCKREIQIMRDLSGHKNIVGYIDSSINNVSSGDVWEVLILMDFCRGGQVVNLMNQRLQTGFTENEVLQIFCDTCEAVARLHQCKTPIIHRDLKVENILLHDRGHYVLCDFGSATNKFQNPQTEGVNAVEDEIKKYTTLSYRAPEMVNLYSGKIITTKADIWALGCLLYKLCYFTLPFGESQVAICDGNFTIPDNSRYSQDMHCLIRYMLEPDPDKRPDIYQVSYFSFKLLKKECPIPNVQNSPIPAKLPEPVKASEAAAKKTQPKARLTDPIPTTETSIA

| pIC50 [1] | pIC50 (AAK1) | pIC50 [2] | SMILES |
| --- | --- | --- | --- |
| 7.30 to 9.00 | < 5.82 | 6.82 to 7.29 | O=C(O[C@H]1CC(=O)N(C2CCNCC2)C1)N1CCN(c2ccn3ncc(-c4cccnc4OC4CC4)c3n2)CC1 [Compound I-32, [(3S)-5-Oxo-1-(4-piperidyl)pyrrolidin-3-yl]4-[3-[2-(cyclopropoxy)-3-pyridyl]pyrazolo[1,5-a]pyrimidin-5-yl]piperazine-1-carboxylate] |
| 7.30 to 9.00 | 6.82 to 7.29 | 6.82 to 7.29 | CC(=O)N1CC(Oc2ncccc2-c2cnn3ccc(NCCN(C)C(=O)OC(C)(C)C)nc23)C1 [Compound I-63, Tert-butyl (2-((3-(2-((1-acetylazetidin-3-yl)oxy)pyridin-3-yl)pyrazolo[1,5-a]pyrimidin-5-yl)amino)ethyl)(methyl)carbamate] |
| 7.30 to 9.00 | 5.82 to 6.30 | 6.30 to 6.82 | COCCN1C[C@@H](OC(=O)N2CCN(c3ccn4ncc(-c5cc(F)cnc5OC5CC5)c4n3)CC2)CC1=O [Compound I-89] |
| 7.30 to 9.00 | 5.82 to 6.30 | 6.30 to 6.82 | COC(=O)N1CC(Oc2ncccc2-c2cnn3ccc(N4CCN(C(=O)O[C@@H]5CNC(=O)C5)CC4)nc23)C1 [Compound I-58, [(3S)-5-oxopyrrolidin-3-yl]-4-[3-[2-(1-methoxycarbonylazetidin-3-yl)oxy-3-pyridyl]pyrazolo[1,5-a]pyrimidin-5-yl]piperazine-1-carboxylate] |
| 7.30 to 9.00 |  | 6.82 to 7.29 | [2H]C([2H])([2H])N1C[C@@H](OC(=O)N2CCN(c3nc4c(-c5cccnc5OC5CC5)cnn4cc3F)CC2)CC1=O [Compound I-116, [(3S)-5-oxo-1-(trideuteriomethyl)pyrrolidin-3-yl]4-[3-[2-(cyclopropoxy)-3-pyridyl]-6-fluoro-pyrazolo[1,5-a]pyrimidin-5-yl]piperazine-1-carboxylate] |
| 7.30 to 9.00 | 6.30 to 6.82 | 5.82 to 6.30 | CN1CC[C@@](C)(OC(=O)N2CCN(c3ccn4ncc(-c5cccnc5OC5CC5)c4n3)CC2)C1 [Compound I-50, [(3R)-1,3-dimethylpyrrolidin-3-yl]-4-[3-[2-(cyclopropoxy)-3-pyridyl]pyrazolo[1,5-a]pyrimidin-5-yl]piperazine-1-carboxylate] |
| 7.30 to 9.00 | 5.82 to 6.30 | 6.30 to 6.82 | C[C@@H]1CN(c2ccn3ncc(-c4cccnc4OC4CC4)c3n2)CCN1C(=O)O[C@@H]1CNC(=O)C1 [Compound I-39, [(3S)-5-oxopyrrolidin-3-yl]-(2R)-4-[3-[2-(cyclopropoxy)-3-pyridyl]pyrazolo[1,5-a]pyrimidin-5-yl]-2-methyl-piperazine-1-carboxylate] |
| 7.30 to 9.00 |  | 6.82 to 7.29 | [2H]C([2H])([2H])N1C[C@@H](OC(=O)N2CCN(c3nc4c(-c5cc(F)cnc5OC5CC5)cnn4cc3F)CC2)CC1=O [Compound I-118, [(3S)-5-oxo-1-(trideuteriomethyl)pyrrolidin-3-yl]4-[3-[2-(cyclopropoxy)-5-fluoro-3-pyridyl]-6-fluoro-pyrazolo[1,5-a]pyrimidin-5-yl]piperazine-1-carboxylate] |
| 6.30 to 6.82 | < 5.82 |  | O=C1C[C@H](OC(=O)N[C@H]2CCN(c3ccn4ncc(-c5cccnc5OC5CC5)c4n3)C2)CN1 [Compound I-55, (S)-5-oxopyrrolidin-3-yl ((S)-1-(3-(2-cyclopropoxypyridin-3-yl)pyrazolo[1,5-a]pyrimidin-5-yl)pyrrolidin-3-yl)carbamate] |
| < 5.82 | < 5.82 |  | CC(C)Nc1ncccc1-c1cnn2ccc(N3CCN(C(=O)O[C@@H]4CNC(=O)C4)CC3)nc12 [Compound I-47, [(3S)-5-oxopyrrolidin-3-yl]4-[3-[2-(isopropylamino)-3-pyridyl]pyrazolo[1,5-a]pyrimidin-5-yl]piperazine-1-carboxylate] |
| 6.30 to 6.82 | < 5.82 |  | COC(=O)N1CC(Oc2ncccc2-c2cnn3ccc(N4CCN(C(=O)O[C@@H]5CC(=O)N(CCOCc6ccccc6)C5)CC4)nc23)C1 [Compound I-84-6, [(3R)-1-(2-benzyloxyethyl)-5-oxo-pyrrolidin-3-yl]-4-[3-[2-(1-methoxycarbonyl-azetidin-3-yl)oxy-3-pyridyl]pyrazolo[1,5-a]pyrimidin-5-yl]piperazine-1-carboxylate] |
| 7.30 to 9.00 | 5.82 to 6.30 |  | COC(=O)N1CC(Oc2ncccc2-c2cnn3ccc(N4CCN(C(=O)O[C@@H]5CC(=O)N(C)C5)CC4)nc23)C1 [Compound I-83, [(3R)-1-methyl-5-oxo-pyrrolidin-3-yl]4-[3-[2-(1-methoxycarbonylazetidin-3-yl)oxy-3-pyridyl]pyrazolo[1,5-a]pyrimidin-5-yl]piperazine-1-carboxylate] |
| < 5.82 | < 5.82 |  | CN1CC(Oc2ncccc2-c2cnn3ccc(N4CCN(C(=O)O[C@@H]5CNC(=O)C5)CC4)nc23)C1 [Compound I-44, (S)-5-Oxopyrrolidin-3-yl 4-(3-(2-((1-methylazetidin-3-yl)oxy)pyridin-3-yl)pyrazolo[1,5-a]pyrimidin-5-yl)piperazine-1-carboxylate] |
| < 5.82 | < 5.82 |  | Cc1nn2ccc(N3CCN(C(=O)O[C@H]4CC(=O)N(C)C4)CC3)nc2c1-c1cccnc1OC1CC1 [Compound I-108, [(3S)-1-methyl-5-oxo-pyrrolidin-3-yl]-4-[3-[2-(cyclopropoxy)-3-pyridyl]-2-methyl-pyrazolo[1,5-a]pyrimidin-5-yl]piperazine-1-carboxylate] |

| SMILES | pIC50 [1] | pIC50 (AAK1) | pIC50 [2] |
| --- | --- | --- | --- |
| CC1(OC(=O)N2CCN(c3ccn4ncc(-c5cccnc5OC5CC5)c4n3)CC2)COC1 [Compound I-2, (3-methyloxetan-3-yl)-4-[3-[2-(cyclopropoxy)-3-pyridyl]pyrazolo[1,5-a]pyrimidin-5-yl]piperazine-1-carboxylate] | 7.30 to 9.00 | 6.82 to 7.29 | 6.30 to 6.82 |
| CN(CCNc1ccn2ncc(-c3cccnc3OC3CN(C(=O)OC(C)(C)C)C3)c2n1)C(=O)OC(C)(C)C [Compound I-62, Tert-butyl3-[[3-[5-[2-[tert-butoxycarbonyl(methyl)amino]ethylamino]pyrazolo[1,5-a]pyrimidin-3-yl]-2-pyridyl]oxy]azetidine-1-carboxylate] | 7.30 to 9.00 | < 5.82 | 6.30 to 6.82 |
| CN1C[C@@H](OC(=O)N2CCN(c3nc4c(-c5cccnc5OC5CC5)cnn4cc3O)CC2)CC1=O [Compound I-110, [(3S)-1-methyl-5-oxo-pyrrolidin-3-yl]-4-[3-[2-(cyclopropoxy)-3-pyridyl]-6-hydroxy-pyrazolo[1,5-a]pyrimidin-5-yl]piperazine-1-carboxylate] | < 5.82 | < 5.82 |  |
| CN(CCN1C[C@@H](OC(=O)N2CCN(c3ccn4ncc(-c5cccnc5OC5CC5)c4n3)CC2)CC1=O)C(=O)OC(C)(C)C [Compound I-35, (S)-1-(2-((tert-butoxycarbonyl)(methyl)amino)ethyl)-5-oxopyrrolidin-3-yl-4-(3-(2-cyclopropoxypyridin-3-yl)pyrazolo[1,5-a]pyrimidin-5-yl)piperazine-1-carboxylate] | 6.82 to 7.29 | < 5.82 |  |
| CC1(OC(=O)N2CCN(c3ccn4ncc(-c5cccnc5OC5CCC5)c4n3)CC2)COC1 [Compound I-17, (3-Methyloxetan-3-yl) 4-[3-[2-(cyclobutoxy)-3-pyridyl]pyrazolo[1,5-a]pyrimidin-5-yl]piperazine-1-carboxylate] | 7.30 to 9.00 | 5.82 to 6.30 |  |
